Assay [1] can be described thus: Panel test of body-odor-like smell (KAREI-SHU), 9-hexadecanoic acid heated (Experiment 3). Set-up: key: +++: the same or higher level of odor; ++: slightly lower level of odor; +: clearly lower level of odor than that of the control system. Particulars: compared with control system. From the text: Upon the HSG samples, the level of a body-odor-like smell was examined on a panel test consisting of six professional panels; the panels directly smelled the samples from each glass vial and judged the level of the smells for each samples with test saccharides based on the following four ranks, i.e., the same or higher level of odor (+++), slightly lower level of odor (++), clearly lower level of odor (+), and odorless (−) as compared with the control system. Summing up the data from the panels, the samples tested were totally evaluated.
The content of 2-nonenal in HSG was measured by GC similarly as in Experiment 1 except that 9-hexadecanoic acid or palmitoleic acid was used as a fatty acid and 2-nonenal, a volatile aldehyde, was used as a standard substance. The level of body-odor-like smell, particularly with respect to KAREI-SHU, in each sample was evaluated by panel test in accordance with the method in Experiment 1.

The test system of assay [2] is 16 healthy males, ranging from 48 to 75 years old. The assay is described as follows: Test on 16 volunteers: KAREI-SHU aldehydes collected from worn underwears (Experiment 8). In kind it is in vivo, human. As for the experimental part: In accordance with the test on volunteer in Experiment 7, the following experiment was conducted with more volunteers, while focusing particularly on the formation inhibitory effect on KAREI-SHU by trehalose. The number of volunteers used in this experiment was 16 healthy males, ranging from 48 to 75 years old. Cotton-made half-sleeve underwears with substantially the same quality were purchased, washed with only water and dried twice in a cyclic manner for volunteers' use as underwears during the test period. As for towels and gauzes used by volunteers during the test period, those with substantially the same quality were purchased, washed with only water and dried twice in a cyclic manner for use. The initiation day of the test was expressed with day 0, and when the volunteers use body-odor-care-goods such as deodorants and bath salts daily, they were asked to suspend their use two days before the initiation of the test, i.e., day −2.
Until about 10 a.m. on day 0, each volunteer was in a usual manner asked to take a bath to sufficiently wash their bodies including hairs. After bathing, they were sequentially allowed to wipe water drops on the surface of their bodies with towels, allowed to wear the prepared underwears, and allowed to spend their daily life as usual.
At about 5 p.m. on day 1, the underwears worn by the volunteers were collected from them and, as underwears for a […], subjected to the following analysis.
Until 10 a.m. on day 1, each volunteer was allowed to take a bath similarly as done on day 0. Just after bathing, they were allowed to wipe water drops on their body surfaces with towels, and sprayed by a sprayer over upper half parts of their bodies with a 2% (w/w) aqueous trehalose solution, which had been previously prepared and provided to the volunteers, followed by extending the solution to homogeneity over the upper half parts in such a manner of tapping on the surfaces of the parts with gauzes, which had been previously soaked in a fresh preparation of the same solution as above. By repeating the steps of spraying and extending for several times before natural dryness, trehalose was applied over the surfaces of upper half parts of the volunteers. Thereafter, the volunteers were allowed to wear new underwears prepared previously and to spend their daily life as usual.
Until about 10 a.m. on day 2, each volunteer was allowed to take a bath similarly as done on day 0. Just after bathing, the volunteers were applied with trehalose over the surfaces of their upper half parts similarly as done on day 1, then allowed to wear new underwears prepared previously and spend their daily life as usual.
At about 5 p.m. on day 3, the underwears worn by the volunteers were collected from the volunteers and, as underwears for a […], subjected to the following analysis.
The underwears collected from the volunteers in the control and test systems were instantly treated by the method in Experiment 7, followed by collecting in a column volatile aldehydes as DNPH derivatives from the underwears. The DNPH derivatives collected in the column were subjected to analysis according to the method in Experiment 7. Using as standard specimens 2-nonenal, 2-octenal, and 2-hexenal, they were separately subjected to GC analysis under the same conditions as above. Based on the gas chromatograms obtained from the above analyses, the contents (μg) of 2-nonenal, 2-octenal, and 2-hexenal, collected from the underwears in the test and control systems, were respectively determined. Respective data obtained from all the volunteers are in Table 8.
As shown in the data of the control system in Table 8, 2-nonenal, 2-octenal and 2-hexenal, known as substances causative of KAREI-SHU, were particularly detected in the underwears from volunteers age over 56. […]

[3] abbreviates: individual volunteers A-P (age 48-75), 2% (w/w) aqueous trehalose solution on upper half of body.

Data on 2 molecules can be found in patent publication US6497862B2, “Composition for inhibiting body odor and uses thereof” (Kabushiki Kaisha Hayashibara, priority 2000, dated 2002).

Molecules are shown by their SMILES. Several values for one entry are separate records, joined by “and”; a condition that tells them apart may be missing. Equal entries are not always repeated. Marks after values point to notes of the source that are not given here.

In the case of `OC[C@H]1O[C@@](CO)(O[C@H]2O[C@H](CO)[C@@H](O)[C@H](O)[C@H]2O)[C@@H](O)[C@@H]1O` [Sucrose, sucrose], the “Evaluation of panel test” value in assay [1] was “+++”.

For the molecule `OC[C@H]1O[C@H](O[C@H]2O[C@H](CO)[C@@H](O)[C@H](O)[C@H]2O)[C@H](O)[C@@H](O)[C@@H]1O` [Trehalose, trehalose], the “Content of 2-Hexenal collected from volunteers' underwears, mean ± standard deviation, with trehalose application” value in assay [2] (Age 54 or under (n = 8), control 0.06 ± 0.18) is listed as 0.09 ± 0.24^ μg; in assay [2] (Age 56 or higher (n = 8), control 5.44 ± 4.39, p < 0.05 to control) it was 0.71 ± 1.65^a μg. Moreover, the “Content of 2-Nonenal collected from volunteers' underwears, mean ± standard deviation, with trehalose application” value in assay [2] (Age 54 or under (n = 8), control 0.19 ± 0.21) was 0.19 ± 0.40^ μg; in assay [2] (Age 56 or higher (n = 8), control 6.61 ± 3.75, p < 0.05 to control) it was 2.11 ± 1.87^a μg. The “Content of 2-Octenal collected from volunteers' underwears, mean ± standard deviation, with trehalose application” value was 0.21 ± 0.36^a μg in assay [2] (Age 54 or under (n = 8), control 1.00 ± 1.00, p < 0.05 to control) and 2.59 ± 1.92^a μg in assay [2] (Age 56 or higher (n = 8), control 5.51 ± 3.71, p < 0.05 to control). In addition, the “Total content of 2-nonenal, 2-octenal and 2-hexenal collected from volunteers' underwears, mean ± standard deviation, with trehalose application” value in assay [2] (Age 54 or under (n = 8), control 1.26 ± 1.02, p < 0.05 to control) is 0.48 ± 0.50^a μg; in assay [2] (Age 56 or higher (n = 8), control 17.17 ± 10.14, p < 0.01 to control), 5.40 ± 4.66^b μg. For the same molecule, in assay [2] (setting [3]), the “Content of volatile aldehydes collected from volunteer, 2-Hexenal, with trehalose application (test system)” value was 0.00 μg (13×) and 0.68 μg and 0.95 μg and 4.70 μg. The “Content of volatile aldehydes collected from volunteer, 2-Octenal, with trehalose application (test system)” value in assay [2] (setting [3]) was 0.24 μg and 0.28 μg and 1.04 μg and 0.00 μg (5×) and 1.82 μg and 1.07 μg and 2.59 μg and 1.13 μg and 5.43 μg and 4.24 μg and 4.42 μg and 0.11 μg. In addition, the “Content of volatile aldehydes collected from volunteer, Nonenal, with trehalose application (test system)” value in assay [2] (setting [3]) was 0.17 μg and 0.00 μg (6×) and 0.18 μg and 1.17 μg and 1.66 μg and 1.10 μg and 1.41 μg and 0.35 μg and 2.71 μg and 4.65 μg and 4.99 μg. Besides, in assay [2] (setting [3]), the “Content of volatile aldehydes collected from volunteer, Total of 2-nonenal, 2-octenal and 2-hexenal, with trehalose application (test system)” value is 0.41 μg and 0.97 μg and 1.04 μg and 0.18 μg and 1.17 μg and 3.48 μg and 1.10 μg and 1.07 μg and 4.96 μg and 1.47 μg and 8.14 μg and 8.89 μg and 14.12 μg and 0.00 μg (2×) and 0.11 μg.
